| SMILES | melting point [°C] |
| --- | --- |
| O=C(O)C1CC1c1ccc(OCc2ccccc2)cc1 (stereo not drawn) | 147 to 149 |
| COc1cc(C=O)c2c(c1)CC(C)O2 (stereo not drawn) | 71 to 73 |
| Nc1nc(S)nc2sccc12 | 275 to 277 |
| Nc1ccc(Cl)c(CN2CCCCC2)c1 | 125 to 127 |
| CC(C)(C)OC(=O)N1CCCC(CC#N)C1 (stereo not drawn) | 48 to 50 |
| Nc1ccn(Cc2ncccn2)n1 | 100 to 102 |
| O=C(CO)Nc1ccccc1 | 79 to 81 |
| NC(=NO)c1ccc(-c2ccccc2)cc1 | 182 to 184 |
| O=C(O)Cn1nnc(-c2ccco2)n1 | 216 to 218 |
| N#Cc1cnoc1N | 143 to 145 |
| Nc1nnc(CC2CCCCC2)s1 | 250 to 252 |
| CNc1nc(CC(C)=O)ns1 | 298 to 300 |
| NCCCN1CCCC(C(N)=O)C1 (stereo not drawn) | 71 to 73 |
| O=C(O)Cc1csc(-c2cc(Br)cs2)n1 | 129 to 131 |
| Nc1ccc(C(=O)NC2CCCCC2)cc1 | 175 to 177 |
| CCOc1ccc(C=C(C#N)C(=O)O)cc1 | 228 to 230 |
| CCOC(=O)c1cc(C(=O)O)cc([N+](=O)[O-])c1 | 178 to 180 |
| CC(C)(C)OC(=O)NC1CCCCCC1C(=O)O (stereo not drawn) | 123 to 125 |
| CC(C)Cn1ncc2cc(C(=O)O)cnc21 | 175 to 177 |
| CC(=O)Oc1ccc(CCl)cc1 | 29 to 31 |
| NS(=O)(=O)CCCF | 45 to 47 |
| Nc1ccccc1CN1CCSCC1 | 72 to 74 |
| CC1=NN(C)C(=O)C1 | 109 to 111 |
| Cc1nn2c(S)nnc2nc1O | 305 to 307 |
| CC(=O)N1CC(C(=O)O)C1 | 149 to 151 |
| N#CC1(CS(N)(=O)=O)CCCC1 | 72 to 74 |

Now from value to molecule:

| melting point [°C] | SMILES |
| --- | --- |
| 131 to 135 | Nc1ccccc1C(=O)Nc1cccc(Cl)c1 |
| 74 to 76 | O=[N+]([O-])c1cc(Cl)ccc1S(=O)(=O)Cl |
| 215 to 217 | CN1C(=O)CCC(C(N)=O)C1c1cccc(Cl)c1 (stereo not drawn) |
| 134 to 136 | O=C(O)C(=O)NCc1ccc(F)cc1 |
| 187 to 189 | O=C1Nc2c(cccc2C(F)(F)F)C1=O |
| 95 to 97 | COc1ccc(CCC(=O)O)cc1Br |
| 75 to 81 | Nc1cccc(NS(N)(=O)=O)c1 |
| 84 to 86 | O=C(O)CCC(=O)c1ccc(F)c(F)c1 |
| 213 to 215 | COc1ccc(NS(=O)(=O)c2ccc(O)c(N)c2)cc1 |
| 40 to 42 | Cc1ccc(-c2noc(Cl)n2)cc1 |
| 167 to 169 | O=C(O)c1c(Cl)nc2ccccc2c1Cl |
| 219 to 221 | O=C(O)c1ccc(C(=O)c2cc[nH]c2)cc1 |
| 180 to 182 | O=C(O)Cc1ccc(NS(=O)(=O)c2ccc(F)cc2)cc1 |
| 225 to 227 | O=C(O)c1cccc(S(=O)(=O)NCc2ccccc2)c1 |
| 124 to 126 | Sc1nnc(NCc2ccco2)s1 |
| 63 to 65 | CCCS(=O)(=O)Nc1cccc(N)c1 |

| melting point [°C] | SMILES |
| --- | --- |
| 114 to 116 | CCOc1ccc(S(=O)(=O)NN)cc1 |
| 86 to 88 | COCCOc1ccc(NC(=O)OCC(F)(F)F)cn1 |
| 211 to 213 | O=C(NCc1ccccc1F)c1ccc(-n2ccnc2S)cc1 |
| 141 to 143 | Cc1ccccc1NC(=O)NN |
| 186 to 188 | Cc1nc(-c2ccc(O)cc2)no1 |
| 120 to 122 | N#Cc1cnc2c(OC(F)F)cccc2c1Cl |
| 185 to 187 | O=C(O)c1cc(S(=O)(=O)Cl)c(Br)cc1Br |
| 99 to 101 | Cc1ccc(-n2nc(N)cc2C)cc1 |
| 95 to 98 | COc1ccc(C(=O)Oc2ccc(C=O)cc2OC)cc1 |
| 127 to 129 | COc1ccc2c(c1)NC(=O)CCC2 |
| 111 to 113 | CC(O)c1nc2ccccc2n1C (stereo not drawn) |
| 138 to 140 | Cc1cc2nc(Cl)c3ccccc3n2n1 |
| 93 to 95 | NNc1ccc(S(=O)(=O)C(F)(F)F)cc1 |
| 182 to 184 | CSc1ccc(C(=O)O)cn1 |
| 210 to 212 | CCn1nc(C(=O)O)c(=O)c2ccccc21 |
| 109 to 111 | O=C(O)CCC(=O)N1CCOc2ccccc21 |

From a melting point compilation (Tetko et al.)
